According to US12295951B2, “Compounds for use in a method of treating or preventing neurological and/or psychiatric disorders” (The Beckley Foundation, priority 2019, dated 2025):

Tests used:
[1] = system: healthy human subjects; assay: Two-dimensional visuospatial location (memory) task in humans; assay type: in vivo; settings: single oral dose 50 μg (one subject 67.5 μg), final recall about 24 h after learning
Protocol: The effects of the test compound (LSD) on cognitive functions in humans—e.g. memory, learning capacity—were investigated by means of a two-dimensional (2D) visuospatial location task in accordance with the experimental design depicted in FIG. 4A. Specifically, the visuospatial location task was carried out as follows:
Thirteen healthy human subjects learned the locations of 15 card pairs taking the test compound (LSD) or placebo in a two-run cross-over open-label design separated by two weeks. Seven subjects received 50 μg of test compound (orally) in the first run and placebo in the second run of the test. Six subjects received placebo in the first run and 50 μg of test compound (orally) in the second run of the test, except for one subject who received 67.5 μg of test compound in the second run. […]
For the two experimental runs, two parallel versions (versions A and B, respectively) of the task (matrix), each showing different pictures (card pairs) at different locations, were used. […] About 24 hours after the learning session, final recall of the memory task was evaluated in a single recall run (recall task). […] The percentage of correctly recalled card locations at final recall relative to the number of correct card locations during the last immediate recall run at learning was determined as the memory performance. […]

[2] = system: Old animals (rats); assay: Enriched environment test (LSD plus cognitive training) with novel object preference in old rats; assay type: in vivo, rat; settings: 0.13 mg/kg for 1 day or 3 consecutive days, then enriched environment 6 days (3 h per day)
Protocol: The potential of the test compound combined with a cognitive training to rescue cognitive functions (called “enriched environment”) was evaluated in old animals according to the experimental design depicted in FIG. 3A. More specifically, the enriched environment test was carried out as follows:
Old animal (about 12-18 months) were administered with saline (control group) or 0.13 mg/kg of test compound (LSD) for 1 day or 3 consecutive days, followed by exposure to an enriched environment for 6 consecutive days (3 hours each day). The enriched environment used herein typically consists of card boxes with 8 different rooms, wherein it is possible to find a variety of objects such as PVC tubes, toilet paper cardboard tubes or wood objects so as to stimulate the exploratory behavior. The animals were allowed to explore the enriched environment freely in groups of 3 to 5 animals. The effects of the test compound followed by the enriched environment were analyzed using one-way ANOVA, followed by Tukey HSD. The statistical analyses were performed using open source programming language R (version 3.6.0). The Mann-Whitney U test was used to compare the performance of old animals exposed to the enriched environment to that of old animals treated with saline and unexposed to the enriched environment.

[3] = system: brain-derived neurotrophic factor (BDNF); assay: BDNF blood serum levels in healthy volunteers (ELISA); assay type: in vivo, human; settings: for BDNF AUC levels compared to placebo / Peak BDNF levels: serum; for BDNF AUC levels compared to placebo: 0-6 h
Protocol: The present double-blind placebo-controlled, within-subjects study aimed to investigate whether low doses (0, 5, 10, and 20 mcg) of LSD affect brain-derived neurotrophic factor (BDNF) blood levels in healthy volunteers. Blood samples were collected every two hours over a six-hour period, and BDNF levels were determined afterwards in blood serum.
Twenty-four recreational psychedelic users were included in this study. Prior to inclusion, participants underwent medical screening including standard blood chemistry, hematology and urinalysis. Inclusion criteria were written informed consent; age 18-40 years; previous experience with a psychedelic drug, but not within the past three months; proficient knowledge of the English language; good physical health; free from psychotropic medication; BMI between 18-28 kg/m^2. Exclusion criteria were history of drug abuse or addiction as assessed using the DSM-IV criteria; history of psychiatric and neurological disorders; previous experience with serious side effects to psychedelic drugs (anxiety or panic attacks); cardiovascular abnormalities; hypertension; psychotic disorder in first-degree relatives; tobacco smoking (>20 cigarettes/day; excessive alcohol (>20 alcoholic consumptions/week); pregnancy or lactation.
LSD doses used were 5, 10, and 20 mcg LSD base. LSD doses were dissolved in ethanol (96% Vol) resulting in a 1 mL volume and the placebo solution consisted of 1 mL of ethanol only. Test days were scheduled with a minimum of five days in between doses. A test day started at 9:00 AM with a screen for the presence of drugs of abuse in urine (THC/opiates/cocaine/amphetamines/methamphetamines), and alcohol in breath. Women were submitted to a urine pregnancy test. When tests were negative, a venous catheter was placed to draw blood and LSD or placebo was administered orally at 10:00 AM. The study was conducted according to the code of ethics on human experimentation established by the declaration of Helsinki (1964) and the World Medical Association (2013).
Blood samples were taken at −0.5 h, +2 h, +4 h and +6 h relative to drug administration; samples were centrifuged, and serum was transferred into a clean tube and frozen subsequently at −20° C. until analysis. BDNF determination was assessed using an ELISA kit (Biosensis Mature BDNF Rapid ELISA kit: human, mouse, rat; Thebarton, Australia) as described by Akinomoto et al. in Behavioural Brain Research 2019, 359, 342-352.
Therefore, only complete within-subjects (WS) cases entered analyses, using the statistical program SPSS (version 25.0). Non-parametric bootstrapped paired-samples t-tests with trapezoidal calculated AUC's as dependent variable were used for 5 mcg (N=10), 10 mcg (N=9), and 20 mcg (N=8), and corresponding placebo. Furthermore, LSD-placebo contrasts were examined using BDNF serum levels at 0 h, +2 h, +4 h and +6 h after dose administration using non-parametric bootstrapped paired samples t-tests. Lastly, to examine time effects per dose, non-parametric bootstrapped repeated measures ANOVA (0 h, +2 h, +4 h, and +6 h) was used, with subsequent non-parametric bootstrapped paired samples t-tests.

[4] = system: Wistar Rats; assay: Novel object preference test in rats; assay type: in vivo, rat; settings: for novel object preference: tested days after administration
Protocol: The effects of the test compound on cognitive functions in rodents, in particular on memory and learning capacity, were investigated using a novel object preference test (sometimes called “novel object recognition task”) according to the experimental design depicted in FIG. 1A. More specifically, the novel object preference test was carried out as follows:
Wistar Rats (outbred albino rats; Janvier Labs) sorted in different age groups, i.e. young (about 2 months), adult (about 9 months) and old (about 12-18 months), were administered with a saline solution (sodium chloride; 0.9% in water) or an aqueous solution of the test compound (LSD) by intraperitoneal injection (dose: 0.13 mg/kg).
Before the injection the animals were housed with other animals, and after the injection of the saline or test compound the animals were housed individually. For ten hours following the administration, the animals were video-recorded and stayed alone during the acute effects of the test compound (or saline). Then, the animals were allowed to recover for a period of 3 or 9 days.
After recovery, the animals were individually placed in an experiment arena (45×45×45 cm) once a day for 10 minutes over a period of 3 days (acclimatization session). The experiment arena as used herein typically includes two 3D printed bases located on the arena's floor 10 cm apart from each other, which are intended for mounting and fixing the test objects. However, said bases are empty during the acclimatization session.
Then, the 3D printed bases were mounted with the same number (i.e. 2) and type of objects (identical LEGO™ pieces each having 12 edges and 12 vertices). The animals were individually placed in the experiment arena and trained for 7 minutes (training session). At the onset of the training session, the animals were individually placed facing the same wall of the arena, with their backs to the objects.
The animals were removed from the arena and allowed to rest for 30 minutes. In the meantime, one of the objects was replaced by a new object having the same dimensions (height and base) as the previous object but a different shape (LEGO™ piece, 14 edges and 14 vertices). The animals were individually placed in the experiment arena for 3 minutes, and their preference for the novel object was evaluated by determining the time spent by the respective animals to explore the novel object (test session; FIG. 1B). At the onset of the test, the animals were individually placed facing the same wall of the arena, with their backs to the objects in a similar manner as during the training session.

## CCN(CC)C(=O)[C@@H]1C=C2c3cccc4[nH]cc(c34)C[C@H]2N(C)C1 [LSD, (D)-lysergic acid diethylamide]
[1]
  performance in the 2D visuospatial location task vs placebo: significantly improved
[1]; listed as test compound
  performance in the 2D visuospatial location task vs placebo: significantly increased
[2]
  cognitive functions / novel object preference vs control group: significant enhancement
[2]; listed as test compound
  cognitive functions / novel object preference vs control group: significant increase
[3]; 5 mcg LSD oral, Z=−2.29, p=0.02
  BDNF AUC levels compared to placebo: significantly increased
[3]; 5 mcg LSD, peak at four hours after administration
  Peak BDNF levels: 8.95 ng/mL
[3]; 10 mcg LSD oral, Z=−2.67, p<0.01
  BDNF AUC levels compared to placebo: significantly increased
[3]; 10 mcg LSD, peak at six hours after administration
  Peak BDNF levels: 8.28 ng/mL
[3]; 20 mcg LSD oral, Z=−2.52, p<0.01
  BDNF AUC levels compared to placebo: significantly increased
[3]; +4 h after 5 mcg LSD, Z=−2.80, p<0.01
  BDNF levels compared to placebo: higher
[3]; +4 h after 10 mcg LSD, Z=−1.95, p=0.05
  BDNF levels compared to placebo: higher
[3]; +6 h after 5 mcg LSD, Z=−2.29, p<0.01
  BDNF levels compared to placebo: higher
[3]; +6 h after 20 mcg LSD, Z=−2.52, p=0.01
  BDNF levels compared to placebo: higher
[4]; adult rats (about 9 months), 0.13 mg/kg i.p., saline baseline about 40%
  novel object preference: about 60%
[4]; adult rats, FIG. 2
  novel object preference (effect vs saline): significantly increased
[4]; old rats (about 12-18 months), 0.13 mg/kg i.p.
  novel object preference (effect vs saline): not significant
[4]; young rats (about 2 months), 0.13 mg/kg i.p., saline baseline about 60%
  novel object preference: about 80%
[4]; young rats, FIG. 2
  novel object preference (effect vs saline): significantly increased
